# pIC50: −log10 of the molar value.
# Molecular target: T1, PDE7 (type VII phosphodiesterase) (Homo sapiens, UniProt Q13946)
# T1 construct: endogenous in cells; host or cells: MOLT-4 (ATCC CRL-1582), soluble fraction, HiTrapQ anion-exchange fraction
# Assay: PDE7 inhibiting activity (3H-cAMP hydrolysis, active fraction from MOLT-4 cells)
# Assay type: biochemical
# Details: PDE7 fraction from MOLT-4 cells, 0.064 μM cAMP, 10 μM rolipram present, 2 hours at 25° C.; read-out: IC50 values for phosphodiesterase inhibiting activities (PDE7)
# Protocol: To evaluate the compounds of the present invention for the ability to suppress PDE7 (type VII phosphodiesterase), the method of Biochemical Pharmacol. 48(6), 1219-1223 (1994) was partially modified to perform the following assay:
# 1) PDE7 (type VII phosphodiesterase) active fraction was obtained. That is, human acute lymphoblastoid lymphoma T cell strain MOLT-4 (purchasable from ATCC under ATCC No. CRL-1582) was cultured in RPMI1640 medium containing 10% fetal bovine serum to obtain 5×10^8 MOLT4 cells. The cells were harvested by centrifugation, and suspended in 10 ml of buffer A (25 mM tris-HCl, 5 mM 2-mercaptoethanol, 2 mM benzamidine, 2 mM EDTA, 0.1 mM 4-(2-aminoethyl)benzenesulfonyl hydrochloride, pH 7=7.5). The cells were homogenized in a Polytoron homogenizer, and centrifuged (4° C., 25,000 G, 10 min). The supernatant was further ultracentrifuged (4° C., 100,000 G, 60 min), and the resulting supernatant was filtered through a 0.2 μm filter to obtain a soluble fraction.
# 2) HiTrapQ column (5 ml×2) equilibrated with buffer A was charged with the resulting soluble fraction. Phosphodiesterase was eluted using 300 ml of buffer A containing a linear gradient solution of 0 to 0.8M sodium chloride to collect sixty 5 ml fractions. Each fraction was tested for cAMP metabolizing phosphodiesterase activity.
# 3) The test compounds at desired concentrations were each reacted for 2 hours at 25° C. in a reactant mixture containing 20 mM tris-HCl (pH 7.5), 1 mM MgCl2, 100 μM EDTA, 330 μg/ml bovine serum albumin, 4 μg/ml 5′-nucleotidase, 0.1 μCi^3H-cAMP (0.064 μM cAMP), 10 μM rolipram, and the type VII phosphodiesterase stored solution. QAE-Sephadex suspended in 10 mM HEPES-Na (pH 7.0) was added to the reaction mixture, and the mixture was allowed to stand for 5 minutes. Then, the supernatant was recovered, and QAE-Sephadex was further added, followed by allowing the mixture to stand for 5 minutes. Then, the resulting supernatant was measure for radioactivity.
# 4) IC50, as the concentration of the test compound that inhibited 50% of the metabolic activity of PDE7, was calculated for each of the compounds.
# T1 sequence (Q13946 whole entry): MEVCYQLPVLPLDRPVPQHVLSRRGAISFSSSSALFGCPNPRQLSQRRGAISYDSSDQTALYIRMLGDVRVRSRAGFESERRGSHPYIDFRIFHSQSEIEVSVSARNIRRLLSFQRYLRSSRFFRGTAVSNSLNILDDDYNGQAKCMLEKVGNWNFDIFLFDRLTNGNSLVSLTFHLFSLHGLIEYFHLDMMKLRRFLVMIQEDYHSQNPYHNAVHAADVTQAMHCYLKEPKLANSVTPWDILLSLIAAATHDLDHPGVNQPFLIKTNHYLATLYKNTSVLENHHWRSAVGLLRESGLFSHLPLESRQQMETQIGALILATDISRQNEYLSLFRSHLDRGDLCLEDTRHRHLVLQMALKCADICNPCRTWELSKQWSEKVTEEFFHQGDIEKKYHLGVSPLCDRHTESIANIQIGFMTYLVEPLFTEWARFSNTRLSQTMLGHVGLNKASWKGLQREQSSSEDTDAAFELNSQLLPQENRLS
row,Compound,pIC50
1,"COc1cc(N2CCCN(C)CC2)ccc1-c1nc2c(C)nn(C3CCCCC3)c2c(=O)[nH]1 [Example 112, 1-Cyclohexyl-5-[2-methoxy-4-(4-methyl-1,4-diazepan-1-yl)phenyl]-3-methyl-1,6-dihydro-7H-pyrazolo[4,3-d]pyrimidin-7-one]",≥ 6.00
2,"CCOc1cc(N2CCCNCC2)ccc1-c1nc2c(C)nn(C3CCCCC3)c2c(=O)[nH]1 [Example 262, 1-Cyclohexyl-5-[4-(1,4-diazepan-1-yl)-2-ethoxyphenyl]-3-methyl-1,6-dihydro-7H-pyrazolo[4,3-d]pyrimidin-7-one]",≥ 8.00
3,"CNC1CCN(c2ccc(-c3nc4c(c(C5CCCCC5)nn4C)c(=O)[nH]3)c(OC)c2)CC1 [Example 150, 3-Cyclohexyl-6-{2-methoxy-4-[4-(methylamino)-1-piperidinyl]phenyl}-1-methyl-1,5-dihydro-4H-pyrazolo[3,4-d]pyrimidin-4-one monomethanesulfonate]",≥ 8.00
4,"CCn1nc(C2CCCCC2)c2c(=O)[nH]c(-c3ccc(N4CCN(C)CC4)cc3OC)nc21 [Example 194, 3-Cyclohexyl-1-ethyl-6-[2-methoxy-4-(4-methyl-1-piperazinyl)phenyl]-1,5-dihydro-4H-pyrazolo[3,4-d]pyrimidin-4-one]",≥ 6.00
5,"CNCCN(C)S(=O)(=O)c1ccc(-c2nc3c(C)nn(C4CCCCC4)c3c(=O)[nH]2)c(OC)c1 [Example 212, 4-(1-Cyclohexyl-3-methyl-7-oxo-6,7-dihydro-1H-pyrazolo[4,3-d]pyrimidin-5-yl)-3-methoxy-N-methyl-N-[2-(methylamino)ethyl]benzenesulfonamide]",≥ 6.00
6,"COc1cc(NC2CCOCC2)ccc1-c1nc2c(C)nn(C3CCCCC3)c2c(=O)[nH]1 [Example 242, 1-Cyclohexyl-5-[2-methoxy-4-(tetrahydro-2H-pyran-4-ylamino)phenyl]-3-methyl-1,6-dihydro-7H-pyrazolo[4,3-d]pyrimidin-7-one]",≥ 6.00
7,"COc1cc(N2CCC(CO)CC2)ccc1-c1nc2c(C)nn(C3CCCCC3)c2c(=O)[nH]1 [Example 109, 1-Cyclohexyl-5-{4-[4-(hydroxymethyl)-1-piperidinyl]-2-methoxyphenyl}-3-methyl-1,6-dihydro-7H-pyrazolo[4,3-d]pyrimidin-7-one]",≥ 8.00
8,"COc1cc(N2CCC(N)CC2)ccc1-c1nc2c(C)nn(C3CCCCC3)c2c(=O)[nH]1 [Example 247, 5-[4-(4-Amino-1-piperidinyl)-2-methoxyphenyl]-1-cyclohexyl-3-methyl-1,6-dihydro-7H-pyrazolo[4,3-d]pyrimidin-7-one]",≥ 6.00
9,"COCCN(C)c1ccc(-c2nc3c(c(C4CCCCC4)nn3C)c(=O)[nH]2)c(OC)c1 [Example 73, 3-Cyclohexyl-6-{2-methoxy-4-[(2-methoxyethyl)(methyl)amino]phenyl}-1-methyl-1,5-dihydro-4H-pyrazolo[3,4-d]pyrimidin-4-one]",≥ 8.00
10,"COc1cc(S(=O)(=O)N(C)CCO)ccc1-c1nc2c(C)nn(C3CCCCC3)c2c(=O)[nH]1 [Example 213, 4-(1-Cyclohexyl-3-methyl-7-oxo-6,7-dihydro-1H-pyrazolo[4,3-d]pyrimidin-5-yl)-N-(2-hydroxyethyl)-3-methoxy-N-methylbenzenesulfonamide]",≥ 6.00
11,"COCCNS(=O)(=O)c1ccc(-c2nc3c(c(C4CCCCC4)nn3C)c(=O)[nH]2)c(OC)c1 [Example 57, 4-(3-Cyclohexyl-1-methyl-4-oxo-4,5-dihydro-1H-pyrazolo[3,4-d]pyrimidin-6-yl)-3-methoxy-N-(2-methoxyethyl) benzenesulfonamide]",≥ 6.00
12,"COc1cc(CN2CCC(C(=O)O)CC2)ccc1-c1nc2c(C)nn(C3CCCCC3)c2c(=O)[nH]1 [Example 239, 1-[4-(1-Cyclohexyl-3-methyl-7-oxo-6,7-dihydro-1H-pyrazolo[4,3-d]pyrimidin-5-yl)-3-methoxybenzyl]-4-piperidinecarboxylic acid]",≥ 6.00
13,"COc1cc(CN2CCOCC2)ccc1-c1nc2c(C)nn(C3CCCCC3)c2c(=O)[nH]1 [Example 235, 1-Cyclohexyl-5-[2-methoxy-4-(4-morpholinylmethyl)phenyl]-3-methyl-1,6-dihydro-7H-pyrazolo[4,3-d]pyrimidin-7-one]",≥ 6.00
14,"CNC1CCN(c2cc(OC)c(-c3nc4c(C)nn(C5CCCCC5)c4c(=O)[nH]3)cc2F)CC1 [Example 129, 1-Cyclohexyl-5-{5-fluoro-2-methoxy-4-[4-(methylamino)-1-piperidinyl]phenyl}-3-methyl-1,6-dihydro-7H-pyrazolo[4,3-d]pyrimidin-7-one]",≥ 6.00
15,"CN1CCN(c2ccc(-c3nc4c(c(C5CCCCC5)nn4C)c(=O)[nH]3)cc2)CC1 [Example 179, 3-Cyclohexyl-1-methyl-6-[4-(4-methyl-1-piperazinyl)phenyl]-1,5-dihydro-4H-pyrazolo[3,4-d]pyrimidin-4-one monomethanesulfonate]",≥ 6.00
16,"CCNC1CCN(c2ccc(-c3nc4c(c(C5CCCCC5)nn4C)c(=O)[nH]3)c(OC)c2)CC1 [Example 97, 3-Cyclohexyl-6-{2-methoxy-4-[4-(ethylamino)-1-piperidinyl]phenyl}-1-methyl-1,5-dihydro-4H-pyrazolo[3,4-d]pyrimidin-4-one]",≥ 8.00
17,"CNC1CCN(S(=O)(=O)c2ccc(-c3nc4c(c(C5CCCCC5)nn4C)c(=O)[nH]3)c(OC)c2)CC1 [Example 169, 3-Cyclohexyl-6-(2-methoxy-4-{[4-(methylamino)-1-piperidinyl]sulfonyl}phenyl)-1-methyl-1,5-dihydro-4H-pyrazolo[3,4-d]pyrimidin-4-one monomethanesulfonate]",≥ 6.00
18,"COc1cc(S(=O)(=O)N2CCCN(C)CC2)ccc1-c1nc2c(C)nn(C3CCCCC3)c2c(=O)[nH]1 [Example 198, 1-Cyclohexyl-5-{2-methoxy-4-[(4-methyl-1,4-diazepan-1-yl)sulfonyl]phenyl}-3-methyl-1,6-dihydro-7H-pyrazolo[4,3-d]pyrimidin-7-one]",≥ 6.00

# Next, values leading:
row,pIC50,Compound
1,≥ 6.00,"Cc1nn(C2CCCCC2)c2c(=O)[nH]c(-c3ccc([N+](=O)[O-])cc3)nc12 [Example 2, 1-Cyclohexyl-3-methyl-5-(4-nitrophenyl)-1,6-dihydro-7H-pyrazolo[4,3-d]pyrimidin-7-one]"
2,≥ 6.00,"Cc1nn(C2CCCCC2)c2c(=O)[nH]c(-c3ccc(N4CCC(O)CC4)cc3)nc12 [Example 14, 1-Cyclohexyl-5-[4-(4-hydroxy-1-piperidinyl)phenyl]-3-methyl-1,6-dihydro-7H-pyrazolo[4,3-d]pyrimidin-7-one]"
3,≥ 6.00,"Cc1nn(C2CCCCC2)c2c(=O)[nH]c(-c3ccc(N)cn3)nc12 [Example 11, 5-(5-Amino-2-pyridinyl)-1-cyclohexyl-3-methyl-1,6-dihydro-7H-pyrazolo[4,3-d]pyrimidin-7-one]"
4,≥ 8.00,"COCCNc1ccc(-c2nc3c(C)nn(C4CCCCC4)c3c(=O)[nH]2)c(OC)c1 [Example 225, 1-Cyclohexyl-5-{2-methoxy-4-[(2-methoxyethyl)amino]phenyl}-3-methyl-1,6-dihydro-7H-pyrazolo[4,3-d]pyrimidin-7-one]"
5,≥ 6.00,"COc1cc(S(=O)(=O)NCCO)ccc1-c1nc2c(C)nn(C3CCCCC3)c2c(=O)[nH]1 [Example 200, 4-(1-Cyclohexyl-3-methyl-7-oxo-6,7-dihydro-1H-pyrazolo[4,3-d]pyrimidin-5-yl)-N-(2-hydroxyethyl)-3-methoxybenzenesulfonamide]"
6,≥ 6.00,"Cc1nn(C2CCCCC2)c2c(=O)[nH]c(-c3ccccn3)nc12 [Example 6, 1-Cyclohexyl-3-methyl-5-(2-pyridinyl)-1,6-dihydro-7H-pyrazolo[4,3-d]pyrimidin-7-one]"
7,≥ 6.00,"Cc1nn(C2CCCCC2)c2c(=O)[nH]c(-c3cc(Cl)ccn3)nc12 [Example 17, 5-(4-Chloro-2-pyridinyl)-1-cyclohexyl-3-methyl-1,6-dihydro-7H-pyrazolo[4,3-d]pyrimidin-7-one]"
8,≥ 8.00,"COc1cc(/C=C/C(=O)O)ccc1-c1nc2c(C)nn(C3CCCCC3)c2c(=O)[nH]1 [Example 227, (2E)-3-[4-(1-cyclohexyl-3-methyl-7-oxo-6,7-dihydro-1H-pyrazolo[4,3-d]pyrimidin-5-yl)-3-methoxyphenyl]-2-propenic acid]"
9,≥ 6.00,"COc1cc(N2CCN(C)CC2)ccc1-c1nc2c(C)nn(C3CCCCC3)c2c(=O)[nH]1 [Example 16, 1-Cyclohexyl-5-[2-methoxy-4-(4-methyl-1-piperazinyl)phenyl]-3-methyl-1,6-dihydro-7H-pyrazolo[4,3-d]pyrimidin-7-one]"
